Data on 63 compounds can be found in paper PMC5607274, “An iterative compound screening contest method for identifying target protein inhibitors using the tyrosine-protein kinase Yes” (Scientific Reports, 2017).

The first assay deals with T1, human recombinant Yes [a.a. 2–543 (end)] (Homo sapiens, UniProt P07947).
T1 construct: human recombinant Yes [a.a; 2–543 (end)]; purchased BPS Bioscience 40488
T1 sequence (P07947 2-543): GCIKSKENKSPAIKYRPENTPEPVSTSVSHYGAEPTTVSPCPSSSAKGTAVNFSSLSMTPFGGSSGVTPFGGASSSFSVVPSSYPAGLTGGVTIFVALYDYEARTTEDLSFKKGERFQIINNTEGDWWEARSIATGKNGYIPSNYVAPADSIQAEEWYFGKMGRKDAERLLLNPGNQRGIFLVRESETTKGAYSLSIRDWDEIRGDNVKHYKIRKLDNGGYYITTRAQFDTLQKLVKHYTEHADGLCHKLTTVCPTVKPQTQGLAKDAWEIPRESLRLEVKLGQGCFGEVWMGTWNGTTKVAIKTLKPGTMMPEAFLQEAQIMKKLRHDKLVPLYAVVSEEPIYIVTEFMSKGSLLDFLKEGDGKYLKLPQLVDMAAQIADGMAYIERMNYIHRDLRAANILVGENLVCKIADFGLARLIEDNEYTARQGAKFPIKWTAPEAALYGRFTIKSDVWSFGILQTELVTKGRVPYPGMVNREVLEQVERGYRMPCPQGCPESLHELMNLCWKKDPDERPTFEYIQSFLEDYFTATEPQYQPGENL
Kind of assay: ADP-Glo kinase assay, inhibition rates of Yes phosphorylation activity (first and second screening). Type of assay: biochemical. The following applies: first screening; mean of n = 4 wells; 10 μmol L−1 compound. The procedure, abridged: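 Hits from a first pass were rescreened after re-dissolution from fresh powder. The first pass reported the mean inhibition rate of quadruplicate wells per compound. Activity was that of recombinant human Yes [a.a. 2–543] kinase, read out with the ADP-Glo ADP-detection method.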
On the technique in general: ADP-Glo first removes unused ATP, then detects ADP through luciferase.
In the case of `CN(c1ccc(I)cc1)S(=O)(=O)c1cn[nH]c1` [Compound Z805651486], the “First screening IR (inhibition rate)” value is listed as -1%. Take `CN(C)c1ccc(CNC(=O)N2CCN(C3=NS(=O)(=O)c4ccccc43)CC2)cc1` [Compound Z449089632]: the “First screening IR (inhibition rate)” value was found to be 1%. As to `CC(C)(C)C1C/C(=C/c2ccc3c(c2)OCO3)c2nc3ccccc3c(C(=O)O)c2C1` (centres unmarked) [Compound Z46108733], the “First screening IR (inhibition rate)” value is on record as 8%. On the same count and under the same terms, in the case of `Cc1cc(COC(=O)c2cc(-c3cccs3)nc3c2cnn3C(C)C)no1` [Compound Z215601214] it was -2%; in that of `Cc1oc(-n2cccc2)c(C#N)c1C(=O)Nc1cccc(/C=C/c2ccccn2)c1` [Compound Z89489183], 9%. With `COC(=O)c1ccc(COc2ccc(/C=C3/CC(C(C)(C)C)Cc4c3nc3ccccc3c4C(=O)O)cc2OC)cc1` (centres unmarked) [Compound Z46108841], the “First screening IR (inhibition rate)” value was determined as 15%. Same read-out and setting: in the case of `C=CCn1c(COc2ccccc2F)nnc1SCCCn1c(=O)[nH]c2ccccc21` [Compound Z24188026] it was -6%; in that of `Cc1ccc(O)c(-c2cc(-c3ccccc3)c3ccccc3n2)c1.Cl` [Compound Z48951082], 1%.

Regarding `COc1ccccc1NC(=O)c1ccc(NC(=O)COc2ccc(-n3cnnn3)cc2)cc1` [Compound Z25181441], the “First screening IR (inhibition rate)” value amounted to 17%.

For the compound `COc1cc(/C=N/Nc2ccnc3cc(Cl)ccc23)ccc1OC(F)F` [Compound Z49626092], the “First screening IR (inhibition rate)” value was -10%. Still for that read-out and setting: in the case of `Cc1c(C#N)c(NC(=O)CN2CCN(Cc3nc4ccccc4s3)CC2)n(CC2CCCO2)c1C` (centres unmarked) [Compound Z125608446] it was 12%; in that of `CN(Cc1ccc(N2CCOCC2)cc1)Cc1c(O)ccc2ccncc12` [Compound Z199499666], -18%.

As for `COC(=O)c1sc2ncc(/C=C/C(=O)c3cccnc3)cc2c1C` [Compound Z871886494], the “First screening IR (inhibition rate)” value was found to be 66%. With `CC1CC(C)CN(S(=O)(=O)c2cc(S(C)(=O)=O)ccc2Cl)C1` (centres unmarked) [Compound Z355129038], the “First screening IR (inhibition rate)” value is reported as 12%. Same read-out and setting: the same measure for `Cc1cc(NC(=O)c2ccn(-c3ccccc3)n2)n(CCC#N)n1` [Compound Z826713438]: 5%; for `Cc1ccc(C(=O)OCc2nc(N)nc(Nc3ccccc3)n2)s1` [Compound Z89671452]: -2%; for `Oc1[nH]c2ccc(Br)cc2c1N=Nc1ccccn1` [Compound Z49660185]: -9%. On the same count and under the same terms, the same measure for `CCn1ncc2c(C(=O)OC)cc(-c3cccs3)nc21` [Compound Z90171904]: 20%. On to `COc1ccc(Cl)cc1NC(=O)CN(C)c1nc(CN2CCOCC2)nc2sc3c(c12)CCC(C)C3` (centres unmarked) [Compound Z31158506], for which the “First screening IR (inhibition rate)” value is on record as 7%. Turning to `COc1cc(/C=N/NC(=O)c2cccnc2)ccc1OC(=O)c1cccnc1` [Compound Z49575448], the “First screening IR (inhibition rate)” value is recorded as 10%. Still for that read-out and setting: in the case of `Cc1nc(C)n(C2CCCN(C(=O)CCn3ccnc3)C2)n1` (centres unmarked) [Compound Z1139343408] it was 0%; in that of `CCc1c(C(=O)Nc2n[nH]c(-c3ccc(C)cc3)n2)cnn1-c1ccccc1` [Compound Z332932578], 1%; in that of `Cc1ccc(Cn2nc(C)c(C(=O)OCc3nc(N)nc(Nc4ccccc4)n3)c2Cl)cc1` [Compound Z89857426], 22%.

On to `Cl.Fc1ccccc1-c1c2c(nc3ccc(Cl)cc13)-c1ccccc1CC2` [Compound Z48955803], for which the “First screening IR (inhibition rate)” value is given as 15%.

In the case of `Cc1ccccc1Nc1nc(N)nc(CSc2ccccc2)n1` [Compound Z19751109], the “First screening IR (inhibition rate)” value was 28%.

Consider `N#Cc1ccc(NC(=O)c2ccn(-c3ccc(F)cc3)n2)cc1` [Compound Z381174904], for which the “First screening IR (inhibition rate)” value came out at 44%. The same measure, in the same setting: the same measure for `CC1CN(C(=O)C2CCS(=O)(=O)C2)c2cc(F)ccc2CN1C(=O)OC(C)(C)C` (centres unmarked) [Compound Z1566941984]: -8%. The same measure, in the same setting: in the case of `Cc1cccc(-c2[nH]ncc2CNC(C)C(C)n2cccn2)c1` (centres unmarked) [Compound Z1143064210] it was -7%; in that of `COc1ccc(NC(C)=O)cc1S(=O)(=O)N(C)Cc1cccc(OC)c1OC` [Compound Z45476409], 2%; in that of `Cc1ccc(-c2cc(-c3ccccc3F)c3cc(Cl)ccc3n2)cc1.Cl` [Compound Z48955827], 12%.

Take `Cc1cc(C(=O)CCC(=O)Nc2nc3c(s2)CN(C)CC3)c(C)s1` [Compound Z169940730]: the “First screening IR (inhibition rate)” value stood at 5%.

On to `Cl.Oc1ccc(-c2cc(-c3ccccc3Cl)c3cc(Cl)ccc3n2)cc1` [Compound Z48951729], for which the “First screening IR (inhibition rate)” value was determined as 10%. On the same count and under the same terms, the same measure for `CCOC(=O)c1c(NC(=O)CN2CCN(c3cccc(Cl)c3)CC2)sc(Cc2ccc3c(c2)OCO3)c1C` [Compound Z30983122]: 12%; for `Cc1nn(Cc2ccccc2)c(Cl)c1C(=O)OCc1nc(N)nc(Nc2ccccc2)n1` [Compound Z89784395]: 0%. On to `CC1CCCC(C)C12NC(=O)N(CN(C)CC(=O)Nc1ccccc1Cl)C2=O` (centres unmarked) [Compound Z286135428], for which the “First screening IR (inhibition rate)” value came to 5%. Still for that read-out and setting: the same measure for `O=C1COc2ccc(C(=O)/C=C/c3ccc(OC(F)F)cc3)cc2N1` [Compound Z94572736]: 3%; for `O=S(=O)(Nc1cccc(-c2cn3ccccc3n2)c1)c1ccccc1` [Compound Z57289575]: 41%. On the same count and under the same terms, in the case of `CCOC(=O)c1[nH]c(C)c(C(=O)CSc2n[nH]c(-c3ccccc3)n2)c1C` [Compound Z225443610] it was -8%. Same read-out and setting: in the case of `Cc1n[nH]c(C)c1S(=O)(=O)Nc1cccc(/C=C/c2ccccn2)c1` [Compound Z45649828] it was 36%; in that of `CCC(NC(=O)c1cc2c(cc1Cl)N1CCCCCC1=NS2(=O)=O)c1ccc(C)cc1` (centres unmarked) [Compound Z28877665], 2%; in that of `CC(C)(C)OC(=O)N1CCc2nc(NC(=O)c3csc(-c4ccco4)n3)sc2C1` [Compound Z296452432], -4%. As for `Cc1ccc(C(CN2CCOCC2)NC(=O)Cn2cnc3sc(-c4ccccc4)cc3c2=O)cc1` (centres unmarked) [Compound Z146866146], the “First screening IR (inhibition rate)” value turned out to be 6%. Still for that read-out and setting: the same measure for `CC(Nc1ccc(Oc2cccc3cccnc23)cc1)C(N)=O` (centres unmarked) [Compound Z1651676792]: 6%; for `O=C(NC1CCS(=O)(=O)C1)c1nc(Cl)c(Cl)c(Cl)c1Cl` (centres unmarked) [Compound Z118688092]: -7%. On the same count and under the same terms, the same measure for `CCOC(=O)c1sc2nc(CN3CCOCC3)nc(Nc3ccc(N4CCCCC4)nc3)c2c1C` [Compound Z238683848]: 37%. As to `O=C(CCC(=O)N1CCC(c2ccccc2)=N1)NCc1cccc(Cl)c1` [Compound Z32361141], the “First screening IR (inhibition rate)” value was 30%. Same read-out and setting: the same measure for `COc1cc(C(=O)Nc2c(C)cccc2C(C)C)ccc1OCc1c(C)noc1C` [Compound Z26400530]: 1%. `CCN(CC)Cc1ccc(C(=O)N2CCC3(C2)NC(=O)NC3=O)cc1` (centres unmarked) [Compound Z1233805260]: the “First screening IR (inhibition rate)” value worked out at 5%.

Regarding `CC1CCN(Cc2ncc(-c3cccc(Cl)c3)o2)CC1n1ccnc1` (centres unmarked) [Compound Z1492998619], the “First screening IR (inhibition rate)” value came out at 33%.

In the case of `O=C1CN(C(=O)c2nn(-c3ccc(F)cc3)c3c2CCCCC3)CCN1` [Compound Z254636716], the “First screening IR (inhibition rate)” value was determined as 10%. For the compound `CC(SCc1nc(N)nc(N(C)C)n1)C(=O)Nc1cc(F)ccc1F` (centres unmarked) [Compound Z197454478], the “First screening IR (inhibition rate)” value was determined as 15%. The same measure, in the same setting: in the case of `CS(=O)(=O)NS(=O)(=O)CCCCCl` [Compound Z56755807] it was -15%; in that of `CNC(=O)c1cccc(NCc2cc(C)ccc2O)n1` [Compound Z1743524859], 37%; in that of `CC(C)c1nn(C)c(Cl)c1CNCc1ccc(N2CCOCC2)c(F)c1` [Compound Z635707390], -12%. Same read-out and setting: the same measure for `COc1cc(Br)c(CN(C)CCc2cnccn2)c(OC)c1` [Compound Z1632805805]: 7%; for `CC1Cc2cc(C(=O)NC3(C)CCS(=O)(=O)C3)ccc2N1S(C)(=O)=O` (centres unmarked) [Compound Z89460412]: 10%.

On to `Oc1cccc(CN(c2ncnc3ccsc23)C2CC2)c1` [Compound Z826941792], for which the “First screening IR (inhibition rate)” value is reported as 1%. On the same count and under the same terms, the same measure for `CCCc1cc(=O)oc2cc(OCC(=O)N(C)CC3COc4ccccc4O3)ccc12` (centres unmarked) [Compound Z97092537]: 30%. The same measure, in the same setting: the same measure for `O=C(Nc1ccc2[nH]c(=O)[nH]c2c1)c1occc1-c1ccccc1` [Compound Z118811128]: 19%. The same measure, in the same setting: the same measure for `CC(C)n1ncc2c(C(=O)O)cc(-c3ccccc3F)nc21` [Compound Z56643534]: -8%.

In the case of `CC(C)N(c1ccccc1)c1ccc(NC(=O)COC(=O)c2c3c(nc4ccccc24)CCCC3)cc1` [Compound Z19690670], the “First screening IR (inhibition rate)” value came out at 10%.

Turning to `CC(C)(C)OC(=O)N1CCCc2cc(NC(=O)c3cnc[nH]3)ccc21` [Compound Z1131596340], the “First screening IR (inhibition rate)” value is 1%.

On to `CC1CN(CC2CCN(CC(=O)Nc3cc(Cl)ccc3Cl)CC2)CC(C)O1` (centres unmarked) [Compound Z1033314424], for which the “First screening IR (inhibition rate)” value was 2%.

Still in this assay, the particulars now being: second screening, dissolved from fresh powder; n = 4; 10 μmol L−1 compound.
For `COC(=O)c1sc2ncc(/C=C/C(=O)c3cccnc3)cc2c1C` [Compound Z871886494], the “Second screening IR (inhibition rate)” value is 12%. Same read-out and setting: in the case of `Cc1n[nH]c(C)c1S(=O)(=O)Nc1cccc(/C=C/c2ccccn2)c1` [Compound Z45649828] it was 0%.
